According to patent US20070156342A1, “Pseudo-sequence method for comparing 7tm receptors with respect to the physico-chemical properties of their binding sites” (7TM PHARMA A/S, priority 2003, published 2007):

Biological target: T1, GRP44 (CRTH2) (Homo sapiens, UniProt Q9Y5Y4)
T1 sequence (Q9Y5Y4 1-395): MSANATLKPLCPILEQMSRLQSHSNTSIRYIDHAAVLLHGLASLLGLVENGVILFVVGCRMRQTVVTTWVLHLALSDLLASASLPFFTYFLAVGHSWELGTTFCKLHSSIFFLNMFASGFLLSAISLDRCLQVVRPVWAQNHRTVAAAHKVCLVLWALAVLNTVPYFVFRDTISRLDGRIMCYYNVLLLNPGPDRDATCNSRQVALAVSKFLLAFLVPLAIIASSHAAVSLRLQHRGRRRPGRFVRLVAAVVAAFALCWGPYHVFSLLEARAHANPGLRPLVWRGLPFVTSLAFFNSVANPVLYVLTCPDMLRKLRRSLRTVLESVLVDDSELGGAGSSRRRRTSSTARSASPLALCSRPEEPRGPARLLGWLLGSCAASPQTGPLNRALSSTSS
Assay: Inhibition of [3H]PGD2 at GRP44 (CRTH2)
Type: binding
Text: A model using theoretical size and electronic descriptors ranked the angiotensin AT2 and angiotensin AT1 receptors to be closely related to GRP44 (CRTH2) with respect to ligand-binding features in the binding site.

## CCOc1nc2cccc(C(=O)O)c2n1Cc1ccc(-c2ccccc2-c2nnn[nH]2)cc1 [candesartan]
Angiotensin II ligand found via the related receptor
  binding to CRTH2 (in words): also binding to CRTH2
Radioligand [3H]PGD2
  IC50: 2100 nM
